Test results taken from article PMC7473840, “Identification of a molecular locus for normalizing dysregulated GABA release from interneurons in the Fragile X brain” (Molecular Psychiatry, 2018).
“Also recorded” adds a separate entry of the source.

Legend:
[1] = tested on: BC–PN synapse, Fmr1-KO; assay: sIPSCs from PNs, Fmr1-KO synapses; type: cell-based, mouse; settings: 10 µM applied to Fmr1-KO cerebellar slices; n = 8
[2] = tested on: Kv1.2; assay: K+ current by voltage ramp, CHO cells expressing Kv1.2-WT; type: cell-based; settings: 1 µM, n = 7
From the text: Fig. 3 Direct interaction between FMRP and Kv1.2 in a phosphorylation-specific manner. a Illustration of an alpha subunit of Kv1.2 channel with extensive details of intracellular C-terminus. b K^+ current generated by a voltage ramp (−90 to 100 mV, top) from CHO cells expressing WT (Kv1.2-WT, middle) or truncated Kv1.2 (Kv1.2-Δ429-500, bottom) before and after infusion of N-terminus FMRP protein (n-FMRP, H00002332-P01, Novus Biologicals, 1:100 dilution). c The changes in amplitude of K^+ current by n-FMRP is summarized for Kv1.2-WT (n = 8) and Kv1.2-Δ429-500 (n = 8) constructs. d Co-IP of Kv1.2 and FMRP in the absence or presence of three peptides targeting the sequence (436–457) of C-terminus of Kv1.2 as highlighted in a phosphorylated (PhosKv436-457), non-phosphorylated (Kv436-457), and phosphorylated scrambled peptide. e Summary of effect of the three peptides. […] The changes in the amplitude and frequency of sIPSCs are summarized in the right panels for PhosKv436-457 (n = 6, f), non-phosphorylated Kv436-457 (n = 6, g), and scrambled (n = 5, h) peptides.
Fig. 5 DHA rescue and graphical overview of the function of FMRP at the BC–PN synapses. a, b Currents generated by a voltage ramp (−90 to 100 mV) from CHO cells transfected with recombinant Kv1.2 in the absence (black) or presence (red) of DHA (1 µM). These currents are fit with a Boltzmann function: f(V) = Imax/(1+e^(V1/2−V)/Vc)+C, in which “Imax” denotes the theoretical value of the maximal amplitude of Kv1.2 currents; “V1/2” indicates the depolarization voltage needed to produce the half-maximal amplitude of the currents; “Vc” is the slope factor describing the steepness of the Boltzmann curve. The parameters for the two groups (n = 7) are summarized in (b). c, d sIPSCs recorded from PNs in Fmr1-KO slices with (bottom) or without (top) DHA (10 µM). Changes in the amplitude and frequency of sIPSC (n = 8) are quantified in (d). e, f APs from PNs before (top) and after (bottom) DHA application (10 µM). […] In WT BCs, there are two populations of Kv1.2 channels being in either non-phosphorylated or phosphorylated state (with C-termini colored in black and turquoise respectively; +/−P to symbolize phosphate modification). The N-terminus of FMRP dimers directly interact with C-terminus of Kv1.2 only in a phosphorylated state. This interaction enhances the gating (Pathway 1), membrane targeting (Pathway 2), and/or axonal trafficking (Pathway 3) of Kv1.2 in the nerve terminal to control its excitability and Ca^2+ dynamics (blue) critical for tuning inhibitory neurotransmission and ensuring the final output from principal neurons (i.e., PNs). […]

[3] = tested on: PNs, Fmr1-KO cerebellar slices; assay: Spontaneous firing of PNs, cell-attached, Fmr1-KO; type: cell-based, mouse; settings: 10 µM, Fmr1-KO, cell-attached; n = 7
[4] = tested on: adult Fmr1-KO mice; assay: Acoustic startle reflex (ASR); type: in vivo, mouse; settings: chow enriched with 0.5% w/w DHA for 1 week; n = 11 versus n = 10 control; double-blind
Protocol: As previously described, acoustic startle response was measured from 7–9-week-old mice, which were submitted to no pulse or a pulse stimulation (120 dB, 40 ms) alone or in combination of a prepulse (either 72, 78, or 82 dB, 20 ms). Maximal startle response was recorded and compared between groups for all types of trials. The sound attenuated chambers and analysis software were obtained from San Diego Instruments (San Diego, USA). One week prior to testing, mice were fed with normal chow or calorically equivalent chow enriched with 0.5% DHA (Sigma) prepared by Research Diets (New Brunswick, USA). Diets were prepared with identical dyes to be indistinguishable by eye. Mice were tested for acoustic startle response only once between 4 p.m. and 7 p.m.

[5] = tested on: Fmr1-KO mice; assay: Three-chambered sociability test, Fmr1-KO; type: in vivo, mouse; settings: 200 mg/kg i.p., 30 min before test; 7–9-week-old male; n = 7
From the text: (§1) The three-chambered sociability test was composed of three sessions: habituation (trail 1), sociability (trial 2), and social novelty (trial 3), which evaluated sociable behavior and recognition of social novelty. For habituation, 7–9-week-old testing male mouse was placed in the middle chamber and allowed to freely explore all three chambers. In the sociability session, a stranger mouse (the same strain and gender but never encountered before) was put underneath a grid cup and placed in one of the two side-chambers, while another identical empty cup was placed on the other side. In the social novelty session, another stranger mouse was put inside the previously empty cup. Each session lasted 9 min. Physical contacts around the cups with the nose, head, and forelimbs, were defined as sniffing behavior and used as an index for sociable behavior [47]. A camera, connected to a computer, was used to track mice activity using the ANY-maze software (ANY-maze, Stoelting Co., IL, USA). Testing was conducted 30 min after saline or DHA (200 mg/kg, Sigma) injection (intraperitoneal, i.p.) to minimize distress from drug administration and ensure normal physical activity that could be affected by DHA for a short period.

[6] = tested on: WT mice; assay: Three-chambered sociability test, WT; type: in vivo, mouse; settings: 200 mg/kg
From the text: as §1

[7] = ref [45]; cited from earlier work
[8] = ref Invitrogen; read-out: Kd (Ca2+ indicator); cited from earlier work

| Molecule | amplitude and frequency of sIPSCs [1] | half-activation voltage (V1/2) ([2]; Boltzmann fit) | maximal amplitude of Kv1.2 currents ([2]; Boltzmann fit) | slope factor (Vc) ([2]; Boltzmann fit) | shift in Kv1.2 currents evoked by voltage ramp ([2]; ramp −90 to 100 mV) | spike (AP) frequency of PNs [3] | acoustic startle reflex from 120-dB sound stimulation [4] | social novelty recognition [5] | distance travelled during the trials ([6]; WT, repeated one-way ANOVA, p>0.05) | social behavior of WT mice ([6]; male C57BL/6J, n = 8, repeated two-way ANOVA) | sniffing time, stranger versus empty cup ([6]; sociability session, WT, n = 8) | sniffing time, novel stranger versus familiar mouse ([6]; social novelty session, WT, n = 8) | blood–brain barrier crossing [7] | Kd [8] |
| --- | --- | --- | --- | --- | --- | --- | --- | --- | --- | --- | --- | --- | --- | --- |
| CC/C=C\C/C=C\C/C=C\C/C=C\C/C=C\C/C=C\CCC(=O)O [DHA, docosahexaenoic acid] | reduced amplitude and frequency of sIPSCs | decreased the half-activation voltage (V1/2) | the maximal amplitude was unaffected | increased the slope factor (Vc) | a significant leftward shift in the Kv1.2 currents | increases the frequency of APs in the Fmr1-KO synapses; also recorded: enhanced the spike frequency of PNs, restoring the firing rate of Fmr1-KOs to the same level as the WTs | significantly attenuated ASR | improved the deficient social novelty recognition | No significant differences | did not affect social performance of WT mice; also recorded: did not alter the social behaviors of WT animals | spent more time sniffing the stranger than the empty cup | spent more time sniffing the novel stranger than the familiar one | can cross blood–brain barrier |  |
| Fluo-4 |  |  |  |  |  |  |  |  |  |  |  |  |  | 345 nM |
